Assay results: US11912693B2, “Compounds for modulating S1P1 activity and methods of using the same” (TREVENA, INC., priority 2017, dated 2024)

Legend:
[1] = test system: peripheral blood lymphocytes; assay: Peripheral blood lymphocytes (lymphopenia) in c57bl/6 mice, acute and chronic studies; format: in vivo; details: for Lymphopenia: Effect and Doses, mg/kg, sc: peripheral blood lymphocytes vs vehicle; for Lymphopenia: Effect and Doses, mg/kg, sc (change in peripheral blood lymphocytes): significance vs vehicle given
Procedure: Compounds were tested for changes in peripheral blood lymphocytes in c57bl/6 mice. In acute studies, animals (n=5/group) were dosed subcutaneously with test compound at a dose of 3 mg/kg. Animals were sacrificed at specific time points and 500 μl of whole blood was collected in EDTA (K2) Eppendorf tubes. Blood was stored on ice and shipped immediately overnight delivery to Charles River Laboratories for analysis. CRL ran samples through their WBC/differential panel on an Advia 120 instrument. We received peripheral lymphocyte counts (10^3 cells/μl) for each blood sample. Treatment group means were compared to a vehicle treatment group for statistical significance. In chronic studies, animals (n=6-8/group) were dosed subcutaneously with test compound either in a dose response paradigm (highest dose of 3 mg/kg) or in a screening paradigm at 6 mg/kg for seven days. On the seventh day, animals were sacrificed 45 minutes after the final dose. Whole blood was collected and analyzed as described for acute studies. […]

[2] = test system: paclitaxel induced peripheral neuropathy; assay: Reversal of allodynia induced by paclitaxel in mice (s.c. or p.o., von Frey frequency method); format: in vivo, c57bl/6 mice; details: Mus musculus; for inhibition in vivo at 1 mg/kg: sc, 0.5 h, 1 mg/kg s.c., tested 30 min after dosing, read-out: Screen @ 1 mg/kg sc (% MPE); for inhibition in vivo at 3 mg/kg: po, 1 h, 3 mg/kg p.o., tested 60 min after dosing, read-out: Screen @ 3 mg/kg po (% MPE)
Procedure, shortened: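 Neuropathy was induced in mice by paclitaxel (6 mg/kg i.p., days 1, 3, 5, 7) or oxaliplatin (4 mg/kg i.p., days 1-5), with re-testing about 14 days later. Compounds were given s.c. (tested at 30 min) or p.o. (tested at 60 min; paclitaxel only). A 0.4 g von Frey filament was applied ten times per paw, and % non-response was converted to % MPE.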

[3] = target: T1, human sphingosine-1-phosphate receptor 1 (S1P1) (Homo sapiens (Human), UniProt P21453); assay: Inhibition of cAMP production (HTRF cAMP HiRange), S1P1 CHO-K1 cells; format: cell-based; details: for Emax: CHO-K1, efficacy (SPAN) normalized to fingolimod, read-out: hS1P1 cAMP SPAN; for hS1P1 cAMP pEC50: inhibition of cAMP production, S1P1 CHO-K1 cells
Procedure, shortened: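 CHO-K1 cells stably co-expressing human S1P1 (C-terminal Prolink tag) and EA-β-arrestin2 were grown in AssayComplete Media 6 at 37° C. and 5% CO2, plated, and incubated overnight. Agonist-driven inhibition of intracellular cAMP was read by TR-FRET with the HTRF cAMP HiRange kit on a PheraStar reader. Potency is pEC50, and efficacy (SPAN) is normalized to fingolimod.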
Target sequence in this assay (P21453 whole entry, looked up): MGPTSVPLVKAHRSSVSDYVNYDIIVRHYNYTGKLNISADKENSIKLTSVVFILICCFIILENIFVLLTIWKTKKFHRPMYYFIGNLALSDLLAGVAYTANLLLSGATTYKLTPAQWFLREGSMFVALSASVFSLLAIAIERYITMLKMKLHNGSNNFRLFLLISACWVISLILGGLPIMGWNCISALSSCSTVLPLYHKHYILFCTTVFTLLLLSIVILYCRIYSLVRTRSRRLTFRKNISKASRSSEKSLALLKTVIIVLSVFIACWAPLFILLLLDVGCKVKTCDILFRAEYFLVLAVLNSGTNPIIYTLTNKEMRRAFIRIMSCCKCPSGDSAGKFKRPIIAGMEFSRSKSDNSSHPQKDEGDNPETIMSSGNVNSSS

[4] = target: T1, human sphingosine-1-phosphate receptor 1 (S1P1); assay: β-Arrestin2 recruitment assay (PathHunter), S1P1 CHO-K1 cells; format: cell-based; details: for Emax: CHO-K1, efficacy (SPAN) normalized to fingolimod, read-out: hS1P1 B-arrestin2 SPAN; for hS1P1 B-arrestin2 pEC50: β-arrestin2 recruitment, S1P1 CHO-K1 cells
Procedure, shortened: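 Enzyme-fragment complementation read-out: agonist-driven β-arrestin2 binding to ProLink-tagged human S1P1 in stable CHO-K1 cells restores β-galactosidase, measured 1 h at room temperature after a 60 min 37° C. compound incubation. Potency as pEC50, efficacy relative to fingolimod (SPAN).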
Target sequence in this assay (P21453 whole entry, looked up): as above
Target sequence in this assay (P32121 whole entry partner, looked up): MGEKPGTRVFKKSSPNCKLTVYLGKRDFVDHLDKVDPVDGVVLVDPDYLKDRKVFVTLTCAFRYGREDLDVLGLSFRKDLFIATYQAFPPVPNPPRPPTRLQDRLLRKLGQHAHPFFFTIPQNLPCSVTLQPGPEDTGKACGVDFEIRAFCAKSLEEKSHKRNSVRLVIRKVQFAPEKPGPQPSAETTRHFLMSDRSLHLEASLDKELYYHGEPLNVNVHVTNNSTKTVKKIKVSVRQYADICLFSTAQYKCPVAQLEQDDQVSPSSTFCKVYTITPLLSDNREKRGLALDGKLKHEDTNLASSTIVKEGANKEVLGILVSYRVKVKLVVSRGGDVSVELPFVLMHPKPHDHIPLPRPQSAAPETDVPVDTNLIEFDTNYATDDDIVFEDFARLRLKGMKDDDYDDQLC

[5] = target: human sphingosine-1-phosphate receptor 2 (S1P2) (Homo sapiens (Human), UniProt O95136); assay: Inositol monophosphate production (IP-one TB kit), S1P2 CHO-K1 cells; format: cell-based
Procedure: (§1) Stable clonal Chinese hamster ovary K1 (CHO-K1) cells co-expressing EA-β-arrestin2 and the human sphingosine-1-phosphate receptor 2 (NM_004230.3, S1P2), human sphingosine-1-phosphate receptor 3 (NM_005226, S1P3) and sphingosine-1-phosphate receptor 5 (NM_001166215.1, S1P5) with a C-terminal Prolink™ tag were purchased from DiscoverX corporation (S1P2: Cat #93-0256C2, S1P3: Cat #93-0217C2, S1P5: Cat #93-0583C2).
(§2) Cell lines were cultured in AssayComplete™ Media 6 (DiscoverX Corporation, Cat #: 920018GF2) at 37° C. and 5% CO2 in a humidified CO2 and temperature-controlled incubator. To begin assay plating, cells were washed with dulbecco's phosphate buffered saline (CellGro, Cat #: 21-031-CV) and lifted from the culturing flask by incubation (37° C., 5 min) with CellStripper (Cellgro, Cat #: 25-056-CI). […] Plated cells were incubated overnight at 37° C. and 5% CO2 in a humidified CO2 and temperature-controlled incubator.
S1P2 Agonist-promoted G-protein responses were determined by measuring changes in intracellular inositol monophosphate using the IP-one TB kit (CisBio, Cat #: 62IPAPEJ) based on time-resolved fluorescence resonance energy transfer (TR-FRET) technology. AssayComplete™ Cell Plating 2 Reagent was removed and replaced with 1× IP-one stimulation buffer (as per manufacturer's instructions) along with test or control compounds at the desired concentrations. Following a 60-minute incubation at 37° C. and 5% CO2 in a humidified CO2 and temperature-controlled incubator, the components of the IP-one TB kit were added as per the manufacturer's instructions. After an hour incubation at room temperature, plates were analyzed by a BMG PheraStar microplate reader.
(§3) The tables below include the efficacy of the compound as compared to a positive control, referred to as “SPAN”. These values are normalized to fingolimod, a known agonist of the sphingosine-1-phosphate 3 and 5 receptor or CYM5520, a known agonist of the sphingosine-1-phosphate 2 receptor. The tables also include potency values (pEC50) for modulating discrete receptor-mediated activities (inhibition of cAMP production or inositol monophosphate accumulation).

[6] = target: human sphingosine-1-phosphate receptor 3 (S1P3) (Homo sapiens (Human), UniProt Q99500); assay: Inhibition of cAMP production (HTRF), S1P3 CHO-K1 cells; format: cell-based
Procedure: as §1, §2
(§4) S1P3 and S1P5 Agonist-promoted G-protein responses were determined by measuring changes in intracellular cAMP using the HTRF® cAMP HiRange kit (CisBio, Cat #: 62AM6PEJ) based on time-resolved fluorescence resonance energy transfer (TR-FRET) technology. […] Following a 30-minute room temperature incubation the components of the cAMP HiRange kit were added as per the manufacturer's instructions. After an hour incubation at room temperature, plates were analyzed by a BMG PheraStar microplate reader.
as §3

[7] = target: sphingosine-1-phosphate receptor 5 (S1P5) (Homo sapiens (Human), UniProt Q9H228); assay: Inhibition of cAMP production (HTRF), S1P5 CHO-K1 cells; format: cell-based
Procedure: as §1, §2, §4, §3

sphingosine-1-phosphate receptor 5 (S1P5), sequence (Q9H228 whole entry): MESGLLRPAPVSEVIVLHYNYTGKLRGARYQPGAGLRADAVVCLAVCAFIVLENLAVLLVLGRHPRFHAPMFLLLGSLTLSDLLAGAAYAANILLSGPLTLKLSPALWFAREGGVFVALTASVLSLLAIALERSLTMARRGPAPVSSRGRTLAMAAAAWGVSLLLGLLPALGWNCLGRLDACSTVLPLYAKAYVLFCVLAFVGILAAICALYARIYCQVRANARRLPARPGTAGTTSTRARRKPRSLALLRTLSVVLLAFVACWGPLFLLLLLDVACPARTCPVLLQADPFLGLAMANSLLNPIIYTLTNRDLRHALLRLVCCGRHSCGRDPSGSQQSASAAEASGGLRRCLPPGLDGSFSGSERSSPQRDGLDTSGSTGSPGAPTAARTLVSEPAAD
human sphingosine-1-phosphate receptor 3 (S1P3), sequence (Q99500 whole entry): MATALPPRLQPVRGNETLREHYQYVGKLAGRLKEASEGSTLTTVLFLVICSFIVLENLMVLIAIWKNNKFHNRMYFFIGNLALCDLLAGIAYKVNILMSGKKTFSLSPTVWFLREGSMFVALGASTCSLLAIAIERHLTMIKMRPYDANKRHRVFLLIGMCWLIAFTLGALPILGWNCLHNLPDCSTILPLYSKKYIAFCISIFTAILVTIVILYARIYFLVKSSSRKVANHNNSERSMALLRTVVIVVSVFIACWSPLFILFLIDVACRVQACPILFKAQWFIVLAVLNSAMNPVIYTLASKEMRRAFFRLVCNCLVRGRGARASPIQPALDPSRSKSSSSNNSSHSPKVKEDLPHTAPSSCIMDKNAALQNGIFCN
human sphingosine-1-phosphate receptor 2 (S1P2), sequence (O95136 whole entry): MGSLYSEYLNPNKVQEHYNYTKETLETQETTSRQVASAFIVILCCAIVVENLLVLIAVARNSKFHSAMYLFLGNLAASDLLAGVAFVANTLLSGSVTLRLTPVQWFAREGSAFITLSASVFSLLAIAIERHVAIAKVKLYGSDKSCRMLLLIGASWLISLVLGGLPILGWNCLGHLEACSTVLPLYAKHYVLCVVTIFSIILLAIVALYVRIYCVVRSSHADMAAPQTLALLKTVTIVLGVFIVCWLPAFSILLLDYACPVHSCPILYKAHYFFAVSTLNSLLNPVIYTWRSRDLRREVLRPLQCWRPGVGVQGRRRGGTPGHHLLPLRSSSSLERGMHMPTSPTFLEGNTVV

Structure (SMILES) | Lymphopenia: Effect and Doses, mg/kg, sc ([1]; 6 mg/kg sc, 7 days) | Emax [3] [%] | hS1P1 cAMP pEC50 [3] | Emax [4] [%] | hS1P1 B-arrestin2 pEC50 [4] | inhibition in vivo at 3 mg/kg [2] [%] | other results
Cc1cnccc1-c1nc(-c2ccc3c(c2)nnn3C(C)C)no1 [Compound 8, 3-(1-isopropyl-1H-benzo[d][1,2,3]triazol-5-yl)-5-(3-methylpyridin-4-yl)-1,2,4-oxadiazole] | no change: 6 mg/kg, 7 days | < 75 | <6.5 | < 75 | <5 |  | inhibition in vivo at 1 mg/kg [2]: < 50%
COc1cccc(-c2noc(-c3ccc4c(c3)nnn4C(C)C)n2)n1 [Compound 19, 5-[3-(6-methoxypyridin-2-yl)-1,2,4-oxadiazol-5-yl]-1-(propan-2-yl)-1H-1,2,3-benzotriazole] | no change: 6 mg/kg, 7 days |  | <6.5 |  | >5 |  | 
CC(C)Oc1ccc(-c2nc(-c3ccc4c(c3)nnn4C(C)C)no2)cc1C#N [Compound 22, 2-isopropoxy-5-(3-(1-isopropyl-1H-benzo[d][1,2,3]triazol-5-yl)-1,2,4-oxadiazol-5-yl)benzonitrile] |  |  |  |  |  |  | Lymphopenia: Effect and Doses, mg/kg, sc ([1]; 3 mg/kg sc, 7 days): no change: 3 mg/kg, 7 days
Cc1ccccc1-c1noc(-c2ccc3c(c2)nnn3C(C)(C)C)n1 [Compound 59, 1-tert-butyl-5-[3-(2-methylphenyl)-1,2,4-oxadiazol-5-yl]-1H-1,2,3-benzotriazole] | no change: 6 mg/kg, 7 days |  | >6.5 |  | >5 |  | 
Cc1ccccc1-c1noc(-c2ccc3c(c2)nnn3CC(C)C)n1 [Compound 96, 5-[3-(2-methylphenyl)-1,2,4-oxadiazol-5-yl]-1-(2-methylpropyl)-1H-1,2,3-benzotriazole] | no change: 6 mg/kg, 7 days | > 75 | >6.5 | > 75 | >5 |  | inhibition in vivo at 1 mg/kg [2]: > 50%
Cc1cnc(-c2nc(-c3ccc4c(c3)nnn4C(C)C)no2)cn1 [Compound 234, 3-(1-isopropyl-1H-benzo[d][1,2,3]triazol-5-yl)-5-(5-methylpyrazin-2-yl)-1,2,4-oxadiazole] | no change: 6 mg/kg, 7 days |  | <6.5 |  | <5 |  | 
COc1ccccc1-c1coc(-c2ccc3c(c2)nnn3C(C)C)n1 [Compound 277, 5-[4-(2-methoxyphenyl)-1,3-oxazol-2-yl]-1-(propan-2-yl)-1H-1,2,3-benzotriazole] |  | > 75 | >6.5 | > 75 | >5 |  | Emax ([5]; CHO-K1, efficacy normalized to CYM5520, read-out: hS1P2 IP-one SPAN): > 50%; hS1P2 IP-one pEC50 ([5]; inositol monophosphate accumulation, hS1P2): <5.0; Emax ([6]; CHO-K1, efficacy normalized to fingolimod, read-out: hS1P3 cAMP SPAN): < 50%; hS1P3 cAMP pEC50 ([6]; inhibition of cAMP production, hS1P3): <5.0; Emax ([7]; CHO-K1, efficacy normalized to fingolimod, read-out: hS1P5 cAMP SPAN): < 50%; hS1P5 cAMP pEC50 ([7]; inhibition of cAMP production, hS1P5): <5.0; inhibition in vivo at 1 mg/kg [2]: > 50%
CC(F)(F)CNc1ccc(-c2nnc(-c3ccc4[nH]ncc4c3)o2)cc1C#N [Compound 355, 2-[(2,2-difluoropropyl)amino]-5-[5-(1H-indazol-5-yl)-1,3,4-oxadiazol-2-yl]benzonitrile] | no change: 6 mg/kg, 7 days |  | >6.5 |  | >5 | > 50 | 
CC(C)Nc1ccc(-c2nnc(-c3ccc4[nH]cnc4c3)o2)cc1C#N [Compound 356, 5-[5-(1H-1,3-benzodiazol-5-yl)-1,3,4-oxadiazol-2-yl]-2-[(propan-2-yl)amino]benzonitrile] | no change: 6 mg/kg, 7 days | > 75 | >6.5 | > 75 | >5 | > 50 | 
CN1C(=O)CCc2cc(-c3nc(-c4cccnc4)no3)ccc21 [Compound 384, 1-methyl-6-[3-(pyridin-3-yl)-1,2,4-oxadiazol-5-yl]-1,2,3,4-tetrahydroquinolin-2-one] |  |  | <6.5 |  | <5 |  | Lymphopenia: Effect and Doses, mg/kg, sc ([1]; acute, 3 mg/kg sc, 45 min and 2 hr): no change: 3 mg/kg; 45 min and 2 hr
CCC1(CC)CC(=O)c2cc(-c3nc(-c4ccc(NC(C)=O)cc4OC)no3)ccc2O1 [Compound 531, N-{4-[5-(2,2-diethyl-4-oxo-3,4-dihydro-2H-1-benzopyran-6-yl)-1,2,4-oxadiazol-3-yl]-3-methoxyphenyl}acetamide] | no change: 6 mg/kg, 7 days |  | >6.5 |  | >5 | > 50 | 
COc1cc(NC(C)=O)ccc1-c1noc(-c2ccc(NC(C)C)c(C#N)c2)n1 [Compound 731, N-[4-(5-{3-cyano-4-[(propan-2-yl)amino]phenyl}-1,2,4-oxadiazol-3-yl)-3-methoxyphenyl]acetamide] |  |  |  |  |  | > 50 | Lymphopenia: Effect and Doses, mg/kg, sc (change in peripheral blood lymphocytes) ([1]; 6 mg/kg sc, 7 days): −78% stat sig: 6 mg/kg, 7 days
CC(C)Nc1ccc(-c2ncc(-c3cccnc3)cn2)cc1C#N [Compound 737, 2-(isopropylamino)-5-(5-(pyridin-3-yl)pyrimidin-2-yl)benzonitrile] |  |  |  |  |  |  | Lymphopenia: Effect and Doses, mg/kg, sc (change in peripheral blood lymphocytes) ([1]; 6 mg/kg sc, 7 days): −40% not stat sig: 6 mg/kg, 7 days
